Measured values taken from the supplement of paper PMC3974653.
Structures can show the parent of a compound that is named as a salt.

System: MTT (mouse pheochromocytoma)
Experiment: IC50 of cell viability (ATP content)
Settings: (24 or 48 h)
Outline: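 Library compounds in DMSO (23 nl by pintool, 8 concentrations, final 0.5 nM to 46 µM) were applied for 24 or 48 hrs to MTT mouse pheochromocytoma cells that had been cultured overnight at 37°C, 5% CO2 in white 1536-well plates. Cell viability was measured by CellTiter-Glo ATP luminescence, read after 15 minutes, with positive-control wells set at 100% and DMSO wells at 0%. A four-parameter logistic fit of the normalised signals yielded the IC50.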

Compound	IC50 of cell viability
OC1=CC2=C([NH]C=C2CCCCN3CC\C(=C/C3)C4=CC=CC=C4)C=C1 [Roxindole hydrochloride]	> 46 µM
NCCN.[Cl-].[Cl-].[Pt+2] [Dichloro(ethylenediamine)platinum(II)]	> 46 µM
C=CCN1CC[C@]23CCCCC2[C@H]1Cc1ccc(O)cc13 (some centres undefined) [LEVALLORPHAN]	> 46 µM
CCCCCC(O)C1C(=O)OC(C)C(O)C=CC=CC=CC=CC=C(C)C(O)C(O)C(O)CC(O)CC(O)CC(O)CC(O)CC1O (centres undefined) [PENTAMYCIN]	> 46 µM
Nc1ccccc1.O=[N+]([O-])O [Anilinium nitrate]	> 46 µM
Nc1nc(O)c2ncn(CCC(CO)CO)c2n1 [PENCICLOVIR SODIUM]	> 46 µM
NCCc1cc[nH]n1 [Betazole hydrochloride]	> 46 µM
CC(CO)NC(=O)C1C=C2c3cccc4[nH]cc(c34)CC2N(C)C1 (centres undefined) [ERGONOVINE]	> 46 µM
O=[N+]([O-])c1ccc([As](=O)(O)O)cc1 [NITARSONE]	> 46 µM
CCCCC/C=C\C/C=C\CCCCCCCC(=O)O [Linoleic acid]	> 46 µM
Cn1cc(O)nc1NC(=O)Nc1cccc(Cl)c1 [FENOBAMUM]	> 46 µM
Nc1c(CC(=O)[O-])cccc1C(=O)c1ccc(Br)cc1 [BROMFENAC SODIUM]	> 46 µM
CC1(C)OC[C@@H]2O[C@@]3(C(=O)O)OC(C)(C)O[C@@H]3[C@@H]2O1 [Dikegulac]	> 46 µM
O=C1Nc2ccc(Cl)cc2C(c2ccccc2)=NC1O (centres undefined) [Oxazepam]	> 46 µM
COC1=C2OC3C(O)\C=C/C4[C@H]5CC(=C2[C@@]34CCN5)C=C1 (some centres undefined) [N-Norcodeine]	> 46 µM
C[C@@H](N)C(=O)O [D-ALANINE]	> 46 µM
CC(=O)OCC(COC(C)=O)OC(C)=O [Triacetin]	> 46 µM
O=Cc1ccccc1 [Benzaldehyde]	> 46 µM
N=C(N)NCCCC(NC(=O)C1CCCN1C(=O)C1CSSCC(N)C(=O)NC(Cc2ccc(O)cc2)C(=O)NC(Cc2ccccc2)C(=O)NC(CCC(N)=O)C(=O)NC(CC(N)=O)C(=O)N1)C(=O)NCC(N)=O (centres undefined) [[8-Arginine]vasopressin]	> 46 µM
O=C1CN2Cc3c(ccc(Cl)c3Cl)NC2=N1 [Anagrelide hydrochloride]	> 46 µM
COc1cc2nc(O)nc(O)c2cc1OC [6,7-DIMETHOXYQUINAZOLINE-2,4(1H,3H)-DIONE]	> 46 µM

Compound	IC50 of cell viability
CSCCC(NC(=O)[C@H](Cc1c[nH]c2ccccc12)NC(=O)CNC(=O)[C@H](CCSC)NC(=O)[C@H](Cc1ccc(O[S+](=O)([O-])O)cc1)NC(=O)[C@@H](N)CC(=O)O)C(=O)N[C@@H](CC(=O)O)C(=O)N[C@@H](Cc1ccccc1)C(N)=O (some centres undefined) [(Tyr[SO3H]27)Cholecystokinin fragment 26-33 Amide]	> 46 µM
CO[C@@H]1[C@@H]([C@H](C)[C@@H]2O[C@@]3(CC[C@@](C)([C@H]4CC[C@@](C)([C@H]5O[C@H]([C@H]6O[C@](C)(O)[C@H](C)C[C@@H]6C)C[C@H]5O[C@H]5C[C@@H](OC)[C@H](OC)[C@@H](C)O5)O4)O3)C[C@@H](O)[C@@H]2C)O[C@@](O)(CC(=O)[O-])[C@H](C)[C@H]1OC [Maduramicin ammonium]	> 46 µM
CCN(CC)CCN1C(=O)CN=C(c2ccccc2F)c2cc(Cl)ccc21 [flurazepam]	> 46 µM
O=S(=O)([O-])OCC1OC(OC2(COS(=O)(=O)[O-])OC(COS(=O)(=O)[O-])C(OS(=O)(=O)[O-])C2OS(=O)(=O)[O-])C(OS(=O)(=O)[O-])C(OS(=O)(=O)[O-])C1OS(=O)(=O)[O-] (centres undefined) [Sucrose Octasulfate, Sodium Salt]	> 46 µM
C=C1CC[C@@]2(O)[C@H]3Cc4ccc(O)c5c4[C@@]2(CCN3CC2CC2)[C@H]1O5 [NALMEFENE HYDROCHLORIDE]	> 46 µM
CCOC(C)OCC [Acetal (Acetaldehyde diethyl acetal)]	> 46 µM
C(=C/c1ccccc1)/CN1CCN(C(c2ccccc2)c2ccccc2)CC1 [Cinnarizine]	> 46 µM
Clc1ccc(CO/N=C(\Cn2ccnc2)c2ccc(Cl)cc2Cl)c(Cl)c1.O=[N+]([O-])O [OXICONAZOLE NITRATE]	> 46 µM
O=C(O)c1cccnc1 [NIACIN]	> 46 µM
C[C@H](N)C(=O)N[C@@H](C)P(=O)(O)O [ALAFOSFALINUM]	> 46 µM
CC(=O)[C@@]1(O)CC[C@H]2[C@@H]3C=C(Cl)C4=CC(=O)CC[C@]4(C)[C@H]3CC[C@@]21C [Chlormadinone]	> 46 µM
O=C(N/N=C/c1ccc([N+](=O)[O-])o1)c1cc([N+](=O)[O-])cc([N+](=O)[O-])c1O [Nifursol]	> 46 µM
[O-]/[N+](=N/c1ccccc1)c1ccccc1 [Azoxybenzene]	> 46 µM
Nc1nc(/C(=C/CC(=O)O)C(=O)NC2C(=O)N3C(C(=O)O)=CCSC23)cs1 (centres undefined) [CEFTIBUTEN]	> 46 µM
Cl.O.O=C1Cc2cc(CCN3CCN(c4nsc5ccccc45)CC3)c(Cl)cc2N1 [Ziprasidone hydrochloride monohydrate]	> 46 µM
CCON=C(CC)C/1=C(O)/CC(CC1=O)C2=C(C)C=C(C)C=C2C (centres undefined) [Tralkoxydim]	> 46 µM
CCCN1CCC[C@@H]2Cc3nc(N)ncc3C[C@H]21 [LY-163,502]	> 46 µM
Oc1ccccc1 [Phenol]	> 46 µM
O=C(O)CN1C(=O)c2cccc3cccc(c23)C1=O [Alrestatin]	> 46 µM
O=[N+]([O-])c1cccc([S+](=O)([O-])NCCN[S+](=O)([O-])c2cccc([N+](=O)[O-])c2)c1 [Dinsed]	> 46 µM

Further lines, results first:

IC50 of cell viability	Compound
> 46 µM	CC(C)CCCC(C)NC(C)C (centres undefined) [IPROHEPTINE HYDROCHLORIDE]
> 46 µM	C[C@H]1C[C@H]2[C@@H]3CC[C@](O)(C(=O)COC(=O)CCC(O)=O)[C@@]3(C)C[C@H](O)[C@@H]2[C@@]\4(C)/C=C\C(=O)\C=C14 [6a-Methylprednisolone 21-hemisuccinate sodium salt]
> 46 µM	CN(C)CCOc1ccccc1Cc1ccccc1.Nc1ccc(C(=O)O)c(O)c1 [Phentoloxamine and PAS]
> 46 µM	COc1ccc(CCN(C)CCCN2CCc3cc(OC)c(OC)cc3CC2=O)cc1OC [ZATEBRADINUM]
> 46 µM	CCCOC(C(=O)OC1CCN(C)CC1)(c1ccccc1)c1ccccc1 [PROPIVERINE HYDROCHLORIDE]
> 46 µM	CCCCCCCCCCCCCCCC(=O)OC[C@H](O)[C@H]1OC[C@@H](O)[C@@H]1O [SORBITAN MONOPALMITATE]
> 46 µM	Cc1noc(N[S+](=O)([O-])c2ccc(N)cc2)c1C [Sulfisoxazole]
> 46 µM	CCCCc1oc2ccc(N[S+](C)(=O)[O-])cc2c1C(=O)c1ccc(OCCCN(CCCC)CCCC)cc1 [Dronedarone]
> 46 µM	COCc1c(C(C)C)nc(C(C)C)c(/C=C/[C@@H](O)C[C@@H](O)CC(=O)[O-])c1-c1ccc(F)cc1 [CERIVASTATIN SODIUM]
> 46 µM	CCOC(=O)C(\C#N)=C(/C1=CC=CC=C1)C2=CC=CC=C2 [Etocrylene]
> 46 µM	Nc1nc(O)c2nc(CNc3ccc(C(=O)N[C@@H](CCC(=O)O)C(=O)O)cc3)cnc2n1 [Folic acid]
> 46 µM	CCOc1cc(OCC)c(C(=O)CCC(=O)O)cc1OCC [TREPIBUTONE]
> 46 µM	CC(CCc1ccc(O)cc1)NCCc1ccc(O)c(O)c1 (centres undefined) [DOBUTAMINE]
> 46 µM	CC(C)NC[C@@H](O)COc1ccc(CC(N)=O)cc1 [R-(+)-ATENOLOL]
> 46 µM	CCC/1=N/N(CCCN2CCN(CC2)C3=CC(=CC=C3)Cl)C(=O)N1CCOC4=CC=CC=C4 [Nefazodone hydrochloride]
> 46 µM	CC(=O)NC(=O)c1ccccc1O [Salacetamida]
> 46 µM	CC(C)NCC(O)COc1ccc(CCOCC2CC2)cc1 (centres undefined) [BETAXOLOL]
> 46 µM	CN(C)CCOC(c1ccccc1)c1ccccc1 [DIPHENHYDRAMINE]
> 46 µM	COC1=C(C=CC=C1)N2CCN(CCCN\C3=C\C(=O)N(C)C(=O)N3C)CC2 [URAPIDIL]
> 46 µM	COc1cc([S+](C)[O-])ccc1-c1nc2ncccc2[nH]1 (centres undefined) [SULMAZOLE]
> 46 µM	Cc1c(C)c2c(c(C)c1OC(=O)c1cccnc1)CC[C@@](C)(CCC[C@H](C)CCC[C@H](C)CCCC(C)C)O2 [TOCOPHEROL NICOTINATE]
> 46 µM	CCC(=O)Oc1ccc2c(c1)CCC1C2CC[C@]2(C)C(OC(=O)CC)CCC12 (some centres undefined)
> 46 µM	CCOC(=O)[C@H](CCc1ccccc1)N[C@@H](C)C(=O)N(CC(=O)O)C1Cc2ccccc2C1 [DELAPRIL HYDROCHLORIDE]
